# Reference: the RepoRT retention time repository (doi:10.1038/s41586-021-03707-9)
# Assay: RP, Waters ACQUITY UPLC HSS C18, 100 × 2.1 mm, 1.7 µm, 40 °C, 0.35 mL/min, estimated dead time 0.63 min; A: water + 0.1% formic acid; B: methanol + 0.1% formic acid; gradient (min/%B) 0/0.5 4/70 4.5/98 5.4/98
# Details: stereoisomer not certain
row,Structure (SMILES),LC retention time [min]
1,O=C(O)C=Cc1ccccc1,4.92
2,Cn1c(=O)c2c(ncn2C)n(C)c1=O,3.23
3,O=C1Cc2ccccc2N1,3.76
4,CCc1occc(=O)c1O,3.63
5,Nc1ccc(O)c(C(=O)O)c1,1.54
6,O=C(O)CC(O)(CC(=O)O)C(=O)O,1.43
7,Cc1cc2nc3[nH]c(=O)[nH]c(=O)c3nc2cc1C,4.5
8,C[N+](C)(C)[O-],0.766
9,NC12CC3CC(CC(C3)C1)C2,3.49
10,NC(CCC(=O)O)C(=O)O (stereo unspecified),0.764
11,O=c1[nH]c(=O)c2ncn(C3OC(COP(=O)(O)O)C(O)C3O)c2[nH]1 (stereo unspecified),1.41
12,Cn1c(=O)[nH]c2[nH]c(=O)[nH]c2c1=O,2.1
13,O=C(O)CC(O)C(=O)O (stereo unspecified),1.92
14,Cn1c(=O)[nH]c(=O)c2[nH]cnc21,2.17
15,NCCc1ccc(O)c(O)c1,1.35
16,NC(CSCC(=O)O)C(=O)O (stereo unspecified),0.873
17,Oc1c[nH]c2ccccc12,3.85
18,CC(=O)Oc1cc(C)c(OC(C)=O)c2ccccc12,5.35
19,CN(C)CCCN1c2ccccc2CCc2ccccc21,4.77
20,NC(CCOC(=O)CCC(=O)O)C(=O)O (stereo unspecified),1.36
21,O=C(O)C(O)Cc1ccccc1 (stereo unspecified),3.7
22,CC1OC(n2cnc3c(N)ncnc32)C(O)C1O (stereo unspecified),2.25
23,CCCC(NC(C)C(=O)N1C(C(=O)O)CC2CCCCC21)C(=O)OCC (stereo unspecified),4.66
24,CC(=O)OCC1OC(OC(C)=O)C(OC(C)=O)C(OC(C)=O)C1OC(C)=O (stereo unspecified),4.5

row,Structure (SMILES),LC retention time [min]
1,Nc1ccc(O)cc1,0.829
2,COC(=O)C1=C(C)NC(C)=C(C(=O)OC)C1c1ccccc1[N+](=O)[O-],5.28
3,Nc1ccn(C2CC(O)C(COP(=O)(O)O)O2)c(=O)n1 (stereo unspecified),1.1
4,COC(=O)c1cccnc1,3.23
5,CC(CCC(=O)O)C(=O)O (stereo unspecified),2.97
6,CC(=O)NC1C(O)CC(O)(C(=O)O)OC1C(O)C(O)CO (stereo unspecified),0.846
7,OC(CCN1CCCCC1)(c1ccccc1)C1CCCCC1 (stereo unspecified),4.77
8,O=Cc1ccccc1C(=O)O,3.24
9,COc1ccccc1C=CC=O,5.02
10,NC(COP(=O)(O)O)C(=O)O (stereo unspecified),0.759
11,CC(O)(CC(=O)O)CC(=O)O,1.9
12,CCCc1nc(C)c2c(=O)[nH]c(-c3cc(S(=O)(=O)N4CCN(CC)CC4)ccc3OCC)nn12,4.47
13,CC12CCC(=O)C=C1CCC1C2CCC2(C)C1CCC2(O)C(=O)CO (stereo unspecified),5.33
14,O=P(O)(O)OC(CO)CO,0.815
15,CC(=CC(=O)O)CC(=O)O,3.07
16,COc1ccc(-c2oc3cc(O)ccc3c(=O)c2O)cc1O,3.62
17,CCCOC(=O)c1cc(O)c(O)c(O)c1,4.3
18,CN1C(=O)CCC1c1cccnc1 (stereo unspecified),1.72
19,O=c1[nH]cnc2nc[nH]c12,1.38
20,O=C(O)c1cc(O)c(O)c(O)c1,1.88
21,O=C(O)CCCCC1SCC2NC(=O)NC21 (stereo unspecified),3.42
22,Nc1ccn(C2OC(CO)C(OP(=O)(O)O)C2O)c(=O)n1 (stereo unspecified),0.912
23,O=C1CCNC(=O)N1,1.16
24,COc1ccc(C2Sc3ccccc3N(CCN(C)C)C(=O)C2OC(C)=O)cc1 (stereo unspecified),4.53

row,Structure (SMILES),LC retention time [min]
1,Cn1cnc2c1c(=O)[nH]c(=O)n2C,2.5
2,CN=C(N)N,0.776
3,CCC1CCC(=O)O1 (stereo unspecified),3.33
4,Nc1nc2c(ncn2CCC(CO)CO)c(=O)[nH]1,1.88
5,Cn1c(=O)[nH]c2nc[nH]c2c1=O,2.28
6,NC(CS)C(=O)O (stereo unspecified),0.798
7,CN1CC(=O)NC1=O,1.62
8,CNC(CCC(=O)O)C(=O)O (stereo unspecified),0.817
9,CCCC(=O)NCC(=O)O,2.36
10,O=C(O)CC=CCC(=O)O,2.67
11,CN(C)CCC=C1c2ccccc2CCc2ccccc21,4.85
12,NC1CCSC1=O (stereo unspecified),0.873
13,CC(CCC(=O)O)CC(=O)O (stereo unspecified),3.46
14,CC(C(=O)O)C(=O)O,1.87
15,CC(=O)NC(CCC(=O)O)C(=O)O (stereo unspecified),1.63
16,OCC1OC(OC2C(CO)OC(O)C(O)C2O)C(O)C(O)C1O (stereo unspecified),0.801
17,NC(CCS)C(=O)O (stereo unspecified),0.907
18,CNCC(O)c1ccc(O)c(O)c1 (stereo unspecified),0.911
19,COc1ccc(C=O)cc1,0.897
20,CNCCc1ccccc1,2.61
21,COc1ccc2nc(S(=O)Cc3ncc(C)c(OC)c3C)[nH]c2c1 (stereo unspecified),4.42
22,O=C(O)c1c[nH]c2ccccc12,4.08
23,O=Cc1ccc(O)c(O)c1,2.91
24,Cn1ccc(=O)n(C)c1=O,2.38

row,Structure (SMILES),LC retention time [min]
1,CC(=O)NC(CC(=O)O)C(=O)O (stereo unspecified),1.23
2,NCC(=O)CCC(=O)O,0.768
3,CCCCCCCCCC(=O)OC(CC(=O)[O-])C[N+](C)(C)C (stereo unspecified),5.25
4,CC(CC(=O)O)C(=O)O (stereo unspecified),2.58
5,Cc1occc(=O)c1O,2.77
6,CCN(Cc1ccncc1)C(=O)C(CO)c1ccccc1 (stereo unspecified),3.36
7,CCOC(=O)CC(=O)OCC,4.32
8,O=C(O)c1ccccc1C(=O)O,3.32
9,CSc1ccc2c(c1)N(CCC1CCCCN1C)c1ccccc1S2 (stereo unspecified),5.19
10,NC(N)=S,0.847
11,NC(CS(=O)O)C(=O)O (stereo unspecified),0.768
12,C=Cc1ccc(O)cc1,4.46
13,O=C(O)C=C(CC(=O)O)C(=O)O,1.84
14,CCOC(=O)CCC(=O)OCC,4.61
15,NC(=O)Cc1ccccc1,3.38
16,CC12CC3CC(C)(C1)CC(N)(C3)C2,4.42
17,O=C(O)C#Cc1ccccc1,4.39
18,NCC(O)c1ccc(O)c(O)c1 (stereo unspecified),0.806
19,O=C(O)C(O)C(O)C(O)C(=O)CO (stereo unspecified),0.808
20,CCC1C(=O)OCC1Cc1cncn1C (stereo unspecified),2.04
21,O=c1ccc2ccccc2o1,4.19
22,CC(=O)OCC[N+](C)(C)C,0.907
23,O=C(O)CNC(=O)c1ccccc1,3.23
24,NCc1ccccc1,1.99

row,Structure (SMILES),LC retention time [min]
1,NC(CS(=O)(=O)O)C(=O)O (stereo unspecified),0.773
2,O=C(O)c1ccccc1O,2.19
3,O=S(=O)(O)c1ccc(O)cc1,1.02
4,O=C(O)Cc1ccc(O)cc1,3.23
5,O=C(O)CCCCCCCC(=O)O,4.56
6,CNCCC(Oc1ccccc1C)c1ccccc1 (stereo unspecified),4.72
7,O=C(O)CCCC(O)C(=O)O (stereo unspecified),1.89
8,COC(=O)C1=C(C)NC(C)=C(C(=O)OCCN(C)Cc2ccccc2)C1c1cccc([N+](=O)[O-])c1 (stereo unspecified),4.6
9,O=C(O)c1c[nH]c(=O)[nH]c1=O,1.51
10,O=C(O)CCCCCC(=O)O,3.46
11,CC(CC(=O)O)CC(=O)O,3.02
12,CC(C)CC(=O)NCC(=O)O,3.07
13,NC(=O)c1ncn(C2OC(COP(=O)(O)O)C(O)C2O)c1N (stereo unspecified),1.11
14,CC(=O)OCC(=O)C1(O)CCC2C3CCC4=CC(=O)CCC4(C)C3C(O)CC21C (stereo unspecified),5.32
15,O=C(C=Cc1ccc(O)c(O)c1)OC1CC(O)(C(=O)O)CC(O)C1O (stereo unspecified),3.03
16,Nc1ccccc1O,1.42
17,O=P(O)(O)OCC1OC(O)C(O)C1O (stereo unspecified),0.778
18,CC(C)NCC(O)COc1cccc2ccccc12 (stereo unspecified),4.33
19,CCC(=O)NCC(=O)O,1.7
20,O=C(O)CCO,0.782
21,CC(=O)CC(=O)CCC(=O)O,3.3
22,CCOC(=O)C(=O)C(C)C(=O)OCC (stereo unspecified),4.56
23,NC(CCC(=O)NC(CS)C(=O)NCC(=O)O)C(=O)O (stereo unspecified),3.37
24,C[N+](C)(C)CCOP(=O)([O-])OCC(O)CO (stereo unspecified),0.764

row,Structure (SMILES),LC retention time [min]
1,CCC(=O)OC(CC(=O)[O-])C[N+](C)(C)C (stereo unspecified),1.82
2,Cn1cnc(=N)c2[nH]cnc21,0.862
3,O=C(O)C=Cc1ccc(O)cc1,3.76
4,CN(C)CCOC(C)(c1ccccc1)c1ccccn1 (stereo unspecified),3.14
5,O=C(O)C=Cc1cnc[nH]1,1.16
6,CN(C)CCOC(c1ccccc1)c1ccccc1,4.37
7,Nc1cccc(C(=O)O)c1O,1.54
8,CN(C)C(=N)N=C(N)N,0.844
9,C[N+](C)(C)CCOP(=O)([O-])OP(=O)(O)OCC1OC(n2ccc(N)nc2=O)C(O)C1O (stereo unspecified),0.822
10,OCC(O)C(O)C(OC1OC(CO)C(O)C(O)C1O)C(O)CO (stereo unspecified),4.47
11,CC12CCC(=O)C=C1CCC1C2C(O)CC2(C)C(C(=O)CO)CCC12 (stereo unspecified),5.31
12,CN1C2CCC1CC(OC(=O)C(CO)c1ccccc1)C2 (stereo unspecified),3.22
13,O=c1cccc[nH]1,1.94
14,O=C(O)C1OC(Oc2c[nH]c3ccccc23)C(O)C(O)C1O (stereo unspecified),2.98
15,Cc1ncc(C[n+]2csc(CCOP(=O)(O)O)c2C)c(N)n1,0.762
16,CCC1OC(=O)C(C)C(OC2CC(C)(OC)C(O)C(C)O2)C(C)C(OC2OC(C)CC(N(C)C)C2O)C(C)(O)CC(C)C(=O)C(C)C(O)C1(C)O (stereo unspecified),4.82
17,O=C(O)CCC(=O)O,1.73
18,CN(C)CCC=C1c2ccccc2COc2ccccc21,4.44
19,O=C(O)C=Cc1cccc(O)c1,4.38
20,NCC(O)c1ccc(O)cc1 (stereo unspecified),0.904
21,NC(N)=NC(CC(=O)O)C(=O)O (stereo unspecified),0.802
